Laboratory results reported in paper PMC3892769 (Journal of medicinal chemistry, 2008).

Tests used:
[1] = test system: human FPGS; conditions: at concentrations up to 1045 µM; cited from earlier work
[2] = target: T1, T. gondii DHFR (Toxoplasma gondii, UniProt Q07422); assay: biochemical
T1 sequence (Q07422 1-610): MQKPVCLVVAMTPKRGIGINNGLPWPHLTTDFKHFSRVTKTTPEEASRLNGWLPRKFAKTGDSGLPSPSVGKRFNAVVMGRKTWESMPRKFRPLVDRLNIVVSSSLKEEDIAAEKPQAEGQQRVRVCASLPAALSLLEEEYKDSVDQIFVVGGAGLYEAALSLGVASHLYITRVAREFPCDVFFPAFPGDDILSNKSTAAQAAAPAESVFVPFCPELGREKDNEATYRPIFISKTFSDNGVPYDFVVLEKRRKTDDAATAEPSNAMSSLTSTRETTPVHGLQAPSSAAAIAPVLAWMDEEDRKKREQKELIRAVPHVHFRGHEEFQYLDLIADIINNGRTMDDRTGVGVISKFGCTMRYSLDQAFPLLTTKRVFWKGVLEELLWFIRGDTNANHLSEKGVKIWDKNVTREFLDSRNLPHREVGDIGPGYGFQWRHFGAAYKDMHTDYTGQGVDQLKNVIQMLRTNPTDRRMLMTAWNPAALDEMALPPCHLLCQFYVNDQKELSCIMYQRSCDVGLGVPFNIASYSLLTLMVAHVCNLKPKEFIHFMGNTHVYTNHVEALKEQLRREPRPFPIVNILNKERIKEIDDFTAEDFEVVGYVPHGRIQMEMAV

[3] = target: T2, human DHFR (Homo sapiens, UniProt P00374); assay: Inhibition of human DHFR; assay type: biochemical
T2 sequence (P00374 1-187): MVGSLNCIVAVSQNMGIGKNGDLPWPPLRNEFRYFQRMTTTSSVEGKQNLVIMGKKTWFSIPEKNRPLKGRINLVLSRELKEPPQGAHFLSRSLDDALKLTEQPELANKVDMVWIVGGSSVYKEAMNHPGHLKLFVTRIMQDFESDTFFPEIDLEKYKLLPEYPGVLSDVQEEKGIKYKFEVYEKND

[4] = target: human TS (Homo sapiens, UniProt P04818); assay: Inhibition of human TS; assay type: biochemical
Sequence of human TS (P04818 whole entry): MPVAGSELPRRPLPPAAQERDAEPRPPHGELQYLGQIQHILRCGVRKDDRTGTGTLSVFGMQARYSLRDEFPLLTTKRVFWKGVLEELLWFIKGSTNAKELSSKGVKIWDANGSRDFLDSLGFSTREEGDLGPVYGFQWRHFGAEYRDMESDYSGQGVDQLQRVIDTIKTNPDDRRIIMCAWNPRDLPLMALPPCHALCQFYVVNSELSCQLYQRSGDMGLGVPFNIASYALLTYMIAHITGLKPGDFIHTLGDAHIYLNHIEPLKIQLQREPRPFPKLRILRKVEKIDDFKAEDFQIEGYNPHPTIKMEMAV

[5] = target: E. coli TS (Escherichia coli, UniProt P0A884); assay: Inhibition of E. coli TS; assay type: biochemical
Sequence of E. coli TS (P0A884 whole entry): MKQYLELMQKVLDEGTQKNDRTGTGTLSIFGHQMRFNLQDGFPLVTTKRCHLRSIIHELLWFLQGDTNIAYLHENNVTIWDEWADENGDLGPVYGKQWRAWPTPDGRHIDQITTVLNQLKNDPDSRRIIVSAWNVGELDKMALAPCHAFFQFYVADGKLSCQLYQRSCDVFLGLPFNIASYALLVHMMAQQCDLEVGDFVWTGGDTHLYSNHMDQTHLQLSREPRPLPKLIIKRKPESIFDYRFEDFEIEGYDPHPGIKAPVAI

[6] = target: T3, T. gondii TS (Toxoplasma gondii, UniProt Q07422); assay: biochemical
T3 sequence (Q07422 1-610): T1 sequence (Q07422 1-610)

[7] = target: E. coli DHFR (Escherichia coli, UniProt P0ABQ4); assay: Inhibition of E. coli DHFR; assay type: biochemical; conditions: read-out: % inhibition of E. coli DHFR at the stated concentration
Sequence of E. coli DHFR (P0ABQ4 whole entry): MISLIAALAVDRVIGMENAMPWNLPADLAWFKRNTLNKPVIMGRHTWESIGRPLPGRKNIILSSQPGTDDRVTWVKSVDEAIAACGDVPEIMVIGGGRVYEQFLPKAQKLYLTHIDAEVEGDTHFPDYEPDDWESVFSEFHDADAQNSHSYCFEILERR

SMILES	Substrate for human FPGS [1]	IC50 [2] [µM]	IC50 [3] [µM]	IC50 [4] [µM]	IC50 [5] [µM]	inhibition at 23 µM ([5]; read-out: % inhibition of E. coli TS at the stated concentration) [%]	IC50 [6] [µM]	inhibition at 23 µM ([6]; read-out: % inhibition of T. gondii TS at the stated concentration) [%]	inhibition at 28 µM [7] [%]
Cc1[nH]c2nc(N)[nH]c(=O)c2c1Sc1ccc(C(=O)N[C@@H](CCC(=O)O)C(=O)O)cc1 [Compound 1, N-{4-[(2-amino-6-methyl-4-oxo-4,7-dihydro-3H-pyrrolo[2,3-d]pyrimidin-5-yl)thio]benzoyl}-L-glutamic acid]	not a substrate								
COc1ccc(OC)c(Sc2c(C)sc3nc(N)[nH]c(=O)c23)c1 [Compound 8, 2-Amino-5-[(2,5-dimethoxyphenyl)sulfanyl]-6-methylthieno[2,3-d]pyrimidin-4(3H)-one]		0.056	22	4.6	> 23	36	> 23	0	0
